Test results as given in PMC3877906, “Polypeptide Modulators of TRPV1 Produce Analgesia without Hyperthermia” (Marine Drugs, 2013).
“Also recorded” adds a separate entry of the source.

Experiments:
TRPV1 = test: low pH-induced TRPV1 receptor currents/activation; type: cell-based; conditions: pH 5.5
From the text: The residues responsible for APHC’s activity are not determined. […] These differences in pharmacology were expressed further in the in vivo results.

TRPA1 = TRPA1 activity, oocyte electrophysiology or agonist-induced fluorescence readout; type: cell-based; conditions: concentrations of up to 2 μM; data not shown
From the text: (§1) The formalin test is a complex in vivo model of pain where TRPV1’s function is more integrative than perceptive. In the mouse, intraplantar injections of formalin produce a biphasic behavioral reaction. The molecular mechanisms underlying formalin-induced pain are based on tissue damage, non-specific activation of nociceptors and direct activation of TRPA1 receptors (measured in phase I) that drive the local neurogenic inflammation and CNS sensitization (measured in phase 2). APHC1 and APHC3 were tested on TRPA1 for inhibitory/activation effects.

ASIC3 = ASIC3 activity, oocyte electrophysiology or agonist-induced fluorescence readout; type: cell-based; conditions: concentrations of up to 2 μM; data not shown
p2X3 = p2X3 activity, oocyte electrophysiology or agonist-induced fluorescence readout; type: cell-based; conditions: concentrations of up to 2 μM; data not shown
CD-1 mice [1] = test: open-field locomotor activity test; type: in vivo, mouse; conditions: 0.1 mg/kg i.v.; vs saline; n = 9 per group; 3 min recording
From the text: We conducted multiple in vivo experiments to assess the biological effects of APHC1 and APHC3, acting via modulation of TRPV1, on temperature sensation and inflammation. Possible negative effects of investigated components on the central nervous system were first excluded. We evaluated APHC1/3 in open-field locomotor activity tests as compounds capable of reducing locomotor activity could misrepresent results of other behavioral tests (particularly in pain models). […] There was no significant effect detected for either polypeptide at a dose of 0.1 mg/kg i.v. (Figure 3a).
All experiments were performed in accordance with the recommendations in the “Principles of Laboratory Animal Care” and after approval by the Animal Care and Use Committee of the Branch of the IBCh RAS (Pushchino, Russia). Adult male CD-1 mice (Animal Breeding Facility Branch of Shemyakin-Ovchinnikov Institute of Bioorganic Chemistry, Russian Academy of Sciences, Pushchino, Russia) weighing 20–25 g were used. […]
The significance of the data was determined by analysis of variance (ANOVA) followed by Tukey’s test. […]
Open-field activity was measured using a system that counts interruptions in a set of photo beams (OPTO—VARIMEX (Columbus Instruments, Columbus, OH, USA) and ATM3 Auto System using Auto-Track Version 4.2 software). Spontaneous locomotor activity was recorded for 3 min.

CD-1 mice [2] = test: hot plate test; type: in vivo, mouse
Protocol: The hot plate test is a most simple for TRPV1 inhibitor characterization since TRPV1 play significant role in temperature sensation. Effect of APHC1 and APHC3 on thermal nociception at dose 0.1 mg/kg after intramuscular, intraperitoneal and intravenous administration was measured before. […] Here we assessed changes in thermal nociception to a noxious thermal stimuli elicited by different doses of APHC1 and APHC3 to determine minimal effective dose. […] Both polypeptides reached maximal effect at 0.1 mg/kg.
(§2) All experiments were performed in accordance with the recommendations in the “Principles of Laboratory Animal Care” and after approval by the Animal Care and Use Committee of the Branch of the IBCh RAS (Pushchino, Russia). Adult male CD-1 mice (Animal Breeding Facility Branch of Shemyakin-Ovchinnikov Institute of Bioorganic Chemistry, Russian Academy of Sciences, Pushchino, Russia) weighing 20–25 g were used. Animals were allowed to acclimate in the laboratory for at least five days. Mice were housed at room temperature (23 ± 2 °C) on a 12 h light–dark cycle with food and water available ad libitum. Polypeptides or vehicle was administered intravenously 15 min before testing.
(§3) The significance of the data was determined by analysis of variance (ANOVA) followed by Tukey’s test. Data are presented as mean ± S.E.
Sensitivity to a thermal stimulus was determined by hind paw withdrawal or licking latency using a Hot-Plate Analgesia Meter (Columbus Instruments, Columbus, OH, USA) at 55 °C.

CD-1 mice [3] = test: formalin test; type: in vivo, mouse; conditions: for formalin-induced response: 0.01 mg/kg; for inhibition of second phase of formalin test: 10.01–60 min; for effect on first phase of formalin test, in words / effect on second phase of formalin test, in words: vs saline
From the text: as §1, §2, §3
Formalin (10 μL 2% in saline) was injected intradermally into the left hind paw. […] This test produces a distinct biphasic response. The total duration of paw flinching during the early phase (0–10 min) and late phase (10.01–60 min) were summed.

CD-1 mice [4] = test: CFA-induced thermal hyperalgesia; type: in vivo, mouse; conditions: i.v., n = 9; for reversal of CFA-induced thermal hyperalgesia: 0.1-0.01 mg/kg (dose of this value not stated), 24 h after CFA, 53 °C; for CFA-induced thermal hyperalgesia, in words: 0.1-0.01 mg/kg, vs saline
From the text: CFA-induced thermal hyperalgesia depends on TRPV1 activation; this was shown in TRPV1-deficient mice and using TRPV1 antagonists. CFA-induced thermal hyperalgesia is a complex process where different inflammatory pathways acting via several mechanisms lower the TRPV1 temperature threshold and influence thermal sensitivity. CFA-treated mice developed thermal hyperalgesia in the injected paw, this manifested as a decrease in the latency to paw withdrawal in response to thermal stimuli (Figure 4c).
as §2, §3
Complete Freund’s adjuvant suspended in an oil/saline (1:1) emulsion, was injected into the plantar surface of the left hind-paw of mice (20 μL/paw). Control mice received 20 μL of saline (i.pl.). Injected paw withdrawal latencies in response to thermal stimulation (53 °C) were measured 24 h after CFA injection.

CD-1 mice [5] = test: core body temperature (rectal measuring); type: in vivo, mouse; conditions: for change in core body temperature: n = 7; for core body temperature, in words: rectal measuring, mice, vs saline
Protocol: Admittedly, hyperthermia is considered a critical side effect of TRPV1 antagonists, so we assessed the effect of the polypeptides on body temperature. Polypeptides were administered intravenously at doses 0.1 mg/kg and 0.5 mg/kg, and rectal temperature was monitored (Figure 5a,b).
as §2, §3
The MLT1404 Rectal Temperature Probe and Chart Power Lab (ADInstruments Inc., Colorado Springs, CO, USA) was used to record body temperature. During recording, the animals were placed in a MLA5018 Rodent Restrainer (ADInstruments Inc., Colorado Springs, CO, USA). The adaptation period was 20 min. Core body temperature was recorded every minute for 20 min before and 100 min after test compound administration. AMG9810 was dissolved in DMSO and was injected intraperitoneally.

CD-1 mice [6] = test: pain models in vivo, overall; set-up: species or system mouse; conditions: i.v.
Protocol: as §2, §3

CD-1 mice [7] = conditions: 0.1 mg/kg, intravenous; ref [15],[16]; cited from earlier work
Protocol: The hot plate test is a most simple for TRPV1 inhibitor characterization since TRPV1 play significant role in temperature sensation. Effect of APHC1 and APHC3 on thermal nociception at dose 0.1 mg/kg after intramuscular, intraperitoneal and intravenous administration was measured before. […] Here we assessed changes in thermal nociception to a noxious thermal stimuli elicited by different doses of APHC1 and APHC3 to determine minimal effective dose. Intravenous administration ...

[8] = i.v., 15 min before test, 55 °C, n = 9 per group, vs saline

Substance | effect on low pH-induced TRPV1 activation, in words (TRPV1) | agonistic/antagonistic activity at TRPA1 (TRPA1) | agonistic/antagonistic activity at ASIC3 (ASIC3) | agonistic/antagonistic activity at p2X3 (p2X3) | travelled distance and rearing, open-field locomotor activity (CD-1 mice [1]) | paw withdrawal latency, hot plate (CD-1 mice [2]; [8]) | dose at which maximal effect is reached, hot plate (CD-1 mice [2]; i.v., 55 °C, n = 9) [mg/kg] | formalin-induced response (CD-1 mice [3]) | inhibition of second phase of formalin test (CD-1 mice [3]; 0.1 mg/kg i.v., n = 9) [%] | effect on first phase of formalin test, in words (CD-1 mice [3]; 0.1 mg/kg i.v., n = 9) | effect on second phase of formalin test, in words (CD-1 mice [3]; 0.1 mg/kg i.v., n = 9) | reversal of CFA-induced thermal hyperalgesia (CD-1 mice [4]) | CFA-induced thermal hyperalgesia, in words (CD-1 mice [4]) | core body temperature, in words (CD-1 mice [5]) | doses with antinociceptive and analgesic activity in vivo (CD-1 mice [6]) [mg/kg] | paw withdrawal latency, hot plate, previous studies (CD-1 mice [7]) | further results
APHC1: polypeptide modulator of TRPV1 from sea anemone Heteractis crispa; homologous to BPTI/Kunitz type serine-protease inhibitors; produced recombinantly in E. coli (GSICLEPKVVGPCTAYFRRFYFDSETGKCTVFIYGGCEGNGNNFETLRACRAICRA; left off: TRX, end not stated, cleaved) | unable to observe any effect | neither agonistic nor antagonistic activity | neither agonistic nor antagonistic activity | neither agonistic nor antagonistic activity | did not significantly alter normal mouse behavior | Dose dependent inhibition of thermal nociception; also recorded: significantly increased paw withdrawal latency | 0.1 | no significant influence | 70 | significantly attenuated the first phase | significantly inhibited the second phase | ~ 80% | Dose dependent inhibition of CFA-induced thermal hyperalgesia; also recorded: significantly reduced thermal hyperalgesia; also recorded: clearly dose-dependent | did not cause hyperthermia; also recorded: significantly decreased core body temperature in both tested doses; also recorded: moderate decrease in core body temperature | 0.01 to 0.1 | significantly prolonged paw withdrawal latency | paw withdrawal latency, hot plate (CD-1 mice [2]; 0.001 mg/kg i.v., data not shown): did not prolong paw withdrawal latency; antinociception in hot plate test (CD-1 mice [2]; 0.01 mg/kg i.v., 55 °C, n = 9): produced antinociception; attenuation of first phase of formalin test (CD-1 mice [3]; 0.1 mg/kg i.v., 0–10 min, n = 9, "39% of response"): 39%; change in core body temperature (CD-1 mice [5]; 0.1 mg/kg i.v., in the 30 min after administration, stayed at this level): −0.8 °C; change in core body temperature (CD-1 mice [5]; 0.5 mg/kg i.v., at the end of data acquisition time): −2.1 °C
APHC3: polypeptide from Heteractis crispa highly homologous to APHC1, differing in four of 56 amino acids; produced recombinantly in E. coli (GSICLEPKVVGPCTAYFPRFYFNSETGKCTPFIYGGCEGNGNNFETLRACRGICRA; left off: TRX, end not stated, cleaved) | inhibited acid-induced (pH 5.5) activation of the receptor | neither agonistic nor antagonistic activity | neither agonistic nor antagonistic activity | neither agonistic nor antagonistic activity | did not significantly alter normal mouse behavior | Dose dependent inhibition of thermal nociception; also recorded: significantly increased paw withdrawal latency | 0.1 | no significant influence | 86 | did not affect the first phase of the response; also recorded: no significant effect on phase 1 | almost completely blocked phase 2; also recorded: significantly inhibited the second phase | 34% | Dose dependent inhibition of CFA-induced thermal hyperalgesia; also recorded: significantly reduced thermal hyperalgesia | did not cause hyperthermia; also recorded: modest hypothermic effect; also recorded: moderate decrease in core body temperature | 0.01 to 0.1 | significantly prolonged paw withdrawal latency | change in core body temperature (CD-1 mice [5]; 0.1 mg/kg i.v., 60 min after administration): −0.6 °C; change in core body temperature (CD-1 mice [5]; 0.5 mg/kg i.v., not statistically significant): −0.4 °C
